The record followed here is patent US20080227638A1, “Use of abscisic acid to enhance growth control” (priority 2007, published 2008).

Format in all cases: in vivo
Data set [1] relates to Kentucky bluegrass. Description: Greenhouse Kentucky bluegrass height and quality, ABA and paclobutrazol (Example 2). On the procedure:
(§1) Greenhouse studies were conducted at the Research Farm of Valent BioSciences Corporation (Long Grove, Ill.). Grasses were grown in pots (18 cm in diameter and 18 cm in height) filled with Promix BX (available from Premier Horticulture Inc. Quakertown, Pa.). Grass was irrigated daily by an overhead irrigation system. The irrigation system was set up with multiple Tornado Mist Spray Heads (10 GPH at 40 PSI-Wetted diameter, NDS/Raindrip, Woodland Hills, Calif.). Spray heads were 1-meter apart from each other and 75 cm above grass canopy. Grass was cut with a scissor at 2.5 cm height and fertilizer (1 g/L all purpose fertilizer 20-20-20, available from The Scotts Company, Marysville, Ohio) was applied once per week.
(§2) Chemical solutions were prepared with distilled water. Tween 20 (0.05% v/v) was used as an, adjuvant. Both trinexapac-ethyl (commercial product Primo Maxx, 11.3% active ingredient) and paclobutrazol (commercial product Trimmit 2SC, 22.3% active ingredient) were purchased from Syngenta Crop Protection Inc. (Greensboro, N.C.). Uniconazole-P (commercial product Sumagic, 0.55% active ingredient) was obtained from Valent U.S.A. Corporation (Walnut Creek, Calif.).
(§3) When treated with paclobutrazol or uniconazole-P, turfgrass received irrigation within 24 hours after application to flush chemicals to the root zone. After treatment, turfgrasses were arranged in a randomized complete block experimental design. Turfgrass quality, turfgrass height or clip fresh weight was measured on assigned dates. Turfgrass quality was visually rated on a 0-9 scale based on the color, uniformity and density of the grass with 0 as the worst and 9 as the best. Turfgrass height was measured as the distance between canopy surface and soil. Clips were collected from each plot; all plots were cut to a uniform height.
(§4) All experiments were randomized complete block experimental design. Data were analyzed by analysis of variance. Duncan's new multiple range tests at α=0.05 were used for mean separations.
Kentucky bluegrass sod (unknown variety) was purchased from Deak sod farms, Inc. (Union Grove, Wis.). Grass was grown in the greenhouse in pots (n=6 pots per treatment) for establishment before treatment. […] Turfgrass quality was evaluated at 7 days after treatment, and turfgrass height was measured at 7 and 28 days after treatment. Tween 20 (0.05% w/v) was included as an adjuvant. The turfgrass canopy was cut every 7 days during the experimental period.

In a further data set the test system is creeping bentgrass. The data set can be described thus: Golf course green creeping bentgrass height, clip weight and quality, ABA and uniconazole-P (Example 5). The following applies: 0.5 ppm uniconazole-P. On the procedure:
Field studies were conducted at the nursery green or the practice green at Countryside golf course (Mundelein, Ill.). Both greens were sand based and growing Penncross creeping bentgrass. Grass was managed with typical Illinois golf course management practices.
as §2, §3, §4
Tween 20 (0.05% w/v) was included as an adjuvant.

Data set [2] relates to Kentucky bluegrass. The data set can be described thus: Greenhouse Kentucky bluegrass height, ABA and uniconazole-P (Example 3). The following applies: 10 ppm uniconazole-P. On the procedure:
as §1, §2, §3, §4
Kentucky bluegrass sod (unknown variety) was purchased from Deak sod farms, Inc. (Union Grove, Wis.). Grass was grown in the greenhouse in pots (n=6 pots per treatment) for establishment before treatment. […] Tween 20 (0.05% w/v) was included as an adjuvant. The turfgrass was cut every 7 days.

Another data set has as its system Bermudagrass. The data set can be described thus: Bermudagrass clip weight, ABA and uniconazole-P (Example 7). As to conditions: 50 ppm uniconazole-P; 7 days after treatment. On the procedure: as §2, §3, §4

Turning to `CC(C)(C)[C@@H](O)[C@@H](Cc1ccc(Cl)cc1)n1cncn1` [paclobutrazol], the Turfgrass height amounted to 12.3 cm in the data set on Kentucky bluegrass [1] (50 ppm paclobutrazol, 7 days after treatment); 8.6 cm in the data set on Kentucky bluegrass [1] (50 ppm paclobutrazol, 28 days after treatment); 12.1 cm with Kentucky bluegrass [1] (500 ppm paclobutrazol, 7 days after treatment); 6.2 cm with Kentucky bluegrass [1] (500 ppm paclobutrazol, 28 days after treatment).
`CC(C)(C)[C@H](O)/C(=C\c1ccc(Cl)cc1)n1cncn1` [uniconazole-P]: the figures for the Clip weight in the data set with creeping bentgrass (7 days after treatment), with creeping bentgrass (49 days after treatment) and in the data set with Bermudagrass were 2.4 g, 3.3 g and 1.4 g, respectively. Besides, the Turfgrass height in the data set on creeping bentgrass (7 days after treatment) stood at 6.0 cm; in the data set with creeping bentgrass (49 days after treatment), 4.8 cm; in the data set with Kentucky bluegrass [2] (7 days after treatment) it was 12.3 cm; in the data set on Kentucky bluegrass [2] (42 days after treatment), 9.8 cm. In addition, the “Effect on turfgrass quality” value in the data set with creeping bentgrass (throughout the study (not shown)) is recorded as “No effect on turfgrass quality”. The “less clip weight compared to control” value in the data set with Bermudagrass was 14%.
